Results as given in the NIST ThermoML archive (doi:10.1021/je9004068).

Experiments:
[1] = for mass density: 298.15 K, 101.33 kPa; for mass density / vapor or sublimation pressure: Liquid; for surface tension liquid-gas: 303.15 K, Maximal bubble pressure
[2] = refractive index (Na D-line) (dimensionless); settings: 298.15 K; 101.33 kPa; Liquid; Standard Abbe refractometry
[3] = xn = mol fraction of the nth substance listed; settings: 303.15 K, Maximal bubble pressure

COC(C)(C)C [2-methoxy-2-methylpropane]
Settings	mass density [kg/m3]	refractive index	surface tension liquid-gas [mN/m]
[1]	735.45	–	18.7
[2]	–	1.36766	–

[1]
Settings	vapor or sublimation pressure [kPa]
308.3 K	50
319.39 K	75
325.98 K	94

COC(C)(C)C [2-methoxy-2-methylpropane] + CCO
[3]
Settings	surface tension liquid-gas [mN/m]
x2 = 0.102	18.39
x2 = 0.212	18.38
x2 = 0.31	18.54
x2 = 0.408	18.84
x2 = 0.527	19
x2 = 0.623	19.21
x2 = 0.721	19.56
x2 = 0.826	20.03

CCO [ethanol]
Settings	mass density [kg/m3]	refractive index	surface tension liquid-gas [mN/m]
[1]	785.05	–	21.7
[2]	–	1.36068	–

[1]
Settings	vapor or sublimation pressure [kPa]
310.89 K	16.01
318.88 K	24.01
323.51 K	30.01
328.54 K	38.01
332.24 K	45.01
334.57 K	50
335.05 K	51.01
338.38 K	59.01
341.01 K	66.01
343.4 K	73.01
344.02 K	75
345.61 K	80.01
347.66 K	87.01
349.56 K	94
349.58 K	94.01
351.65 K	102.07
